What was measured:
EGFP654 mice = assay: Acute toxicity, blood chemistry parameters in EGFP654 mice; assay type: in vivo, mouse; conditions: 7.5 mg/kg i.v.; data not shown
Excerpt: (§1) All animal procedures were in accordance with guidelines of the UNC Laboratory Animal Medicine Department and with federal guidelines. The EGFP654 transgenic mouse has been described previously (Sazani, P., et al., Nature biotechnology, 20, 1228-1233 (2002), Roberts, J., et al., Mol Ther, 14, 471-475 (2006)). A reporter gene comprised of the EGFP coding sequence is interrupted by an aberrantly spliced intron. Delivery of an appropriate SSO to the nucleus of tissue cells will correct splicing leading the expression of normal EGFP mRNA and protein. EGFP654 mice were administered 25 mg/kg SS0623 or mis-matched oligonucleotide in PBS by intra-peritoneal injection on two consecutive days. One day later the mice received 7.5 mg/kg UNC10217938A intravenously in a diluent of 5% PEG400, or diluent only. After 24 h the mice were euthanized and cardiac blood and tissues samples collected. Tissues for fluorescence microscopy to visualize EGFP were fixed in cold 1.5% paraformaldehyde in PBS and then processed for cryosectioning (Sazani, P., et al., Nature biotechnology, 20, 1228-1233 (2002)). Tissues for RNA analysis were collected from mice euthanized at 4 h and ere quick frozen on dry ice. All procedures involving live animals were conducted by the UNC Animal Studies Core facility. Blood samples were analyzed by the UNC Animal Clinical Chemistry Core facility.

EGFP654 transgenic mouse = assay: In vivo splice correction in EGFP654 transgenic mouse
Excerpt: FIG. 4. In vivo effects: Quantitation of RT-PCR. Gel bands were quantitated using a Typhoon imaging system. Percent of switching is the ratio of lower band to upper band ×100. *** difference from PBS control significant at the 0.001 level.
as §1
In the EGFP654 transgenic line a reporter gene comprised of the EGFP coding sequence is interrupted by an aberrantly spliced intron. Effective delivery of an appropriate SSO to the nucleus of tissue cells will correct splicing leading to expression of normal EGFP mRNA and protein in that tissue. We visualized EGFP expression by fluorescence microscopy of tissue cryosections and evaluated correction of EGFP pre-mRNA splicing by RT-PCR. […]

A375Luc705 cells = assay: Luciferase induction by RGD-SSO-albumin conjugate; assay type: cell-based, human; conditions: 2 h, 100 nM RGD-SSO-albumin conjugate
Protocol: FIG. 2. Effects on Receptor-Targeted oligonucleotides. A375Luc705 cells were treated with 100 nM RGD-SSO-albumin conjugate for 16 h and subsequently treated with Retro-1 (100 uM) or 7938 (5, 10 uM) for 2 h. After removal of the compound the cells were incubated for a further 24 h and then assayed for luciferase and cell protein. (A) Control; (B) RGD-SSO conjugate only; (C) RGD-SSO conjugate plus Retrol; (D) RGD-SSO conjugate plus 5 uM 7938; (E) RGD-SSO conjugate plus 10 uM 7938. Means+/−SE. N=3.
Our laboratory has pursued the use of ligand-oligonucleotide conjugates to attain receptor-selective targeted delivery (Alam, M. R., et al., Bioconjugate chemistry, 22, 1673-1681 (2011), Ming, X., et al., Biomaterials, 34, 7939-7949 (2013), Nakagawa, O., et al., Bioconjugate chemistry, 25, 165-170 (2014)). Thus we were interested in whether our compounds would affect oligonucleotides that enter cells by receptor-mediated endocytosis. We used a previously described (Ming, X., et al., Biomaterials, 34, 7939-7949 (2013)) multivalent conjugate comprised of several RGD peptide-conjugated morpholino SSOs further conjugated via bioreversible links to serum albumin as a carrier. […] We examined luciferase induction in αvβ3-expressing A375 melanoma cells that contain the Luc705 expression cassette. […] Thus 7938 can substantially enhance effects of receptor targeted oligonucleotide conjugates. […]

HeLaLuc705 cells [1] = assay: High throughput screen, SSO623 luciferase induction, 384 well; assay type: cell-based, human; conditions: library compounds at 25 uM, 5 h; 100 nM SSO623
Protocol: Our high throughput screen (HTS) utilized HeLaLuc705 cells. Delivery of an appropriate SSO to the nucleus corrects splicing and induces luciferase expression thus providing an easily interpreted positive readout (Iam, M. R. et al., Nucleic Acids Res, 36, 2764-2776 (2008), Ming, X., et al., Nucleic Acids Res, 38, 6567-6576 (2010)). Cells were trypsinized, rinsed, and suspended in Opti-MEM at 300,000 cells/ml; SSO623 was added to a final concentration of 100 nM. No lipid or polymer transfection agents were used in these assays. Opti-MEM (15 ul) followed by cell suspension (20 ul) was added to wells of 384 well plates. Cells were allowed to attach and incubate with the SSO for 16 h. During this 16 h period a set of positive control wells received chloroquine to a final concentration of 300 uM while a set of negative control wells received diluent. After the initial incubation the remaining wells received library compounds to a final concentration of 25 uM. Incubation with library compounds was at 37 C for 5 h at which time the cells were harvested and analyzed for luciferase induction. Library compounds that produced an induction of 50% that of the positive controls were considered positive in this assay and were further analyzed. Dose-response curves were developed comparing SSO623 with a mis-matched oligonucleotide. […]

HeLaLuc705 cells [2] = assay: SSO623-mediated luciferase induction (splice correction), 24 well format; assay type: cell-based, human; conditions: for enhancement of luciferase induction as compared to SSO alone: 2 h, 100 nM SSO623
Protocol: FIG. 1B. SSO Dose-response of hit compounds. Selected hits were examined for their ability to enhance splice correction by SSO623 in the HeLa Luc 705 cell system. Cells were incubated in 24 well plates with 100 nM 623 or its mismatched control (MM) for 16 h in DMEM+10% FBS, rinsed, and then treated with various concentrations of the hit compounds, or with 100 uM Retro-1, for 2 h. The cells were then rinsed and incubation continued for an additional 4 h in DMEM+10% FBS. Cells were rinsed twice in PBS and luciferase activity (RLU) and cell protein determined. Means+/−SE. N=3. Mismatched controls were at baseline level on this scale and are not shown.
(§2) Luciferase induction dose-response curves in a 24 well plate format with normalization on cell protein were performed as previously described (Alam, M. R. et al., Nucleic Acids Res, 36, 2764-2776 (2008), Ming, X., et al., Nucleic Acids Res, 38, 6567-6576 (2010)). Splicing modulation of the EGFP654 reporter and of endogenous Bcl-X were monitored by RT-PCR using appropriate primers. Evaluation of hit compound effects on antisense actions involved ‘knockdown’ of MDR1 pre-mRNA and its protein product in multi-drug resistant mouse 3T3 cells. Cell surface expression of P-glycoprotein was monitored using an Alexa-488 conjugated monoclonal antibody and flow cytometry as previously described (Ming, X. et al., Nucleic Acids Res, 41, 3673-3687 (2013), Fisher, M., et al., Nucleic Acids Res, 35, 1064-1074 (2007)). Evaluation of effects on siRNA utilized a HeLa cell line stably transfected with an EGFP expression cassette. Cholesterol-conjugated siRNAs were used to attain sufficient uptake. Cells were incubated with the siEGFP or control siRNA, rinsed, and then briefly exposed to hit compound. After further incubation expression of EGFP was monitored by flow cytometry. In cases where treatment with Lipofectamine 2000 was used as a positive control, the manufacturer's protocol was followed.

HeLa cells = assay: Live cell confocal microscopy: subcellular distribution of TAMRA oligonucleotide and organelle markers; assay type: cell-based, human
Protocol: FIG. 3A: Effects on Cell Morphology and Subcellular Distribution of Oligonucleotide: Quantitation of Colocalization. HeLa cells were transfected with baculovirus expression vectors for GFP-Rab7a (late endosome marker) or GFP-LAMP-1 (lysosome marker). The cells were then incubated with 300 nM SSO 623-TAMRA for 16 h. Cells were then treated with 10 uM 7938 for 1 h or maintained as controls. Live cells were imaged using a confocal microscope with environmental stage. Co-localization of GFP and TAMRA oligonucleotide was quantitated using the Image J Coloc2 plug-in and expressed as the Manders correlation coefficient. Individual cells were analyzed and the data summated. Means and standard errors shown. N=9-20. ** represents p<0.002 compared to Rab 7 control.
FIG. 3B. Effects on Cell Morphology and Subcellular Distribution of Oligonucleotide: Nuclear Accumulation. TAMRA fluorescence intensity in the nucleus was quantitated using Image J. Means and standard errors shown. N=55-70. *** represents p<0.001 compared to Control.
Quantitative live cell confocal microscopy (Dunn, K. W., et al., Am J Physiol Cell Physiol, 300, C723-742 (2011)) was performed to examine the subcellular distribution of fluorescent oligonucleotide or of certain markers for endomembrane compartments. Cells (HeLa) were transfected with baculovirus expression vectors for GFP chimeras of marker proteins for several endomembrane compartments. The day following transfection, cells were incubated for 4 h with 300 nM TAMRA conjugated SSO 623 in OptiMEM after which the cells were washed and incubated in DMEM medium with 1% FBS. In some cases hit compounds were added during or after the incubation. Cells were imaged on an Olympus FV1000 MPE laser scanning confocal microscope with environmental chamber to maintain 37 C, 40% humidity and 5% C02. We used 488 nm (GFP) and 559 nm (TAMRA) as laser lines, and images were collected with a 60× oil immersion lens. Quantitation of co-localization of oligonucleotide and marker proteins utilized the Coloc2 plug-in in Image J. In some cases GFP markers for organelles were examined in cells previously fixed in 4% formaldehyde in PBS.

[3] = system: HeLa cell line stably transfected with an EGFP expression cassette; assay: Cholesterol-conjugated siEGFP reduction of EGFP, flow cytometry; assay type: cell-based, human; conditions: cholesterol-conjugated siRNA
Protocol: as §2

[4] = system: P-glycoprotein multidrug transporter in multi-drug resistant 3T3 cells; assay: Antisense knockdown of P-glycoprotein (anti-MDR1 ASO), flow cytometry; assay type: cell-based, mouse
Protocol: as §2, with “followed. […]” for “followed.”

C57BL/6 mice = assay: 7 day toxicity study; assay type: in vivo; conditions: doses that overlap those of FIG. 4, data not shown
[5] = 10 uM, 1 h, Manders correlation coefficient

Compound: CCOC(=O)Nc1cc(NCCN(C)C)c2nc(-c3ccccc3)c(-c3ccccc3)nc2n1 [compound 7938]
- acute toxicity (blood chemistry parameters) (EGFP654 mice): did not result in acute toxicity
- EGFP fluorescence in liver, kidney and heart (EGFP654 transgenic mouse; SS0623 25 mg/kg i.p. on two days, then 7.5 mg/kg compound i.v., 24 h): distinct increases
- correction of EGFP pre-mRNA splicing by RT-PCR in liver, kidney and heart (EGFP654 transgenic mouse; SS0623 followed by compound, RNA at 4 h): correctly spliced EGFP message was found
- EGFP induction in skeletal muscle (EGFP654 transgenic mouse; SS0623 followed by compound, data not shown): not strongly affected
- ability of the conjugate to induce luciferase (A375Luc705 cells; 5 or 10 uM compound, compared with 100 uM Retro-1): far larger impact
- activity in high throughput screen (HeLaLuc705 cells [1]): active
- enhancement of luciferase induction as compared to SSO alone (HeLaLuc705 cells [2]; 10 uM compound): 60 fold
- enhancement of luciferase induction as compared to SSO alone (HeLaLuc705 cells [2]; 20 uM compound): 220 fold
- amount of SSO at which strong induction effects were observed (HeLaLuc705 cells [2]; SSO varied, constant concentration of compound): 3 nM
- co-localization of TAMRA-oligonucleotide with late endosome marker Rab7 (HeLa cells; [5]): major reduction
- co-localization of TAMRA-oligonucleotide with lysosomal marker LAMP-1 (HeLa cells; [5]): little effect
- accumulation of Tamra-oligonucleotide in the nucleus (HeLa cells; TAMRA fluorescence intensity in the nucleus): increase
- release of fluorescent dextran from endosomes (HeLa cells; dextran of molecular mass similar to an oligonucleotide, data not shown): partially released
- ability of siEGFP to reduce levels of EGFP [3]: enhanced
- amount of ASO at which strong effects were observed ([4]; ASO varied, constant concentration of compound): 5 nM
- enhancement of ASO action (P-glycoprotein knockdown) ([4]; anti-MDR1 ASO, data not shown): strongly enhanced
- toxicity (C57BL/6 mice): no significant evidence of toxicity

Compound: CCC(=O)N1CC(=O)Nc2ccc(Br)cc2C1c1ccccc1 (stereo not shown) [Retro-1, reference compound]
- ability of the conjugate to induce luciferase (A375Luc705 cells; 100 uM compound): increased
- enhancement of luciferase induction as compared to SSO alone (HeLaLuc705 cells [2]; 100 uM compound): 11 fold

Source: US10266823B2, “Small molecules that enhance the activity of oligonucleotides” (The University of North Carolina at Chapel Hill, priority 2014, dated 2019)
